The values that follow come from US20230295200A1 (REGENTS OF THE UNIVERSITY OF MICHIGAN, priority 2022, published 2023).

SMILES strings stand for the structures.

In experiment [1] the target is T1, STAT5A (Homo sapiens, UniProt P42229).
T1 sequence (P42229 1-794): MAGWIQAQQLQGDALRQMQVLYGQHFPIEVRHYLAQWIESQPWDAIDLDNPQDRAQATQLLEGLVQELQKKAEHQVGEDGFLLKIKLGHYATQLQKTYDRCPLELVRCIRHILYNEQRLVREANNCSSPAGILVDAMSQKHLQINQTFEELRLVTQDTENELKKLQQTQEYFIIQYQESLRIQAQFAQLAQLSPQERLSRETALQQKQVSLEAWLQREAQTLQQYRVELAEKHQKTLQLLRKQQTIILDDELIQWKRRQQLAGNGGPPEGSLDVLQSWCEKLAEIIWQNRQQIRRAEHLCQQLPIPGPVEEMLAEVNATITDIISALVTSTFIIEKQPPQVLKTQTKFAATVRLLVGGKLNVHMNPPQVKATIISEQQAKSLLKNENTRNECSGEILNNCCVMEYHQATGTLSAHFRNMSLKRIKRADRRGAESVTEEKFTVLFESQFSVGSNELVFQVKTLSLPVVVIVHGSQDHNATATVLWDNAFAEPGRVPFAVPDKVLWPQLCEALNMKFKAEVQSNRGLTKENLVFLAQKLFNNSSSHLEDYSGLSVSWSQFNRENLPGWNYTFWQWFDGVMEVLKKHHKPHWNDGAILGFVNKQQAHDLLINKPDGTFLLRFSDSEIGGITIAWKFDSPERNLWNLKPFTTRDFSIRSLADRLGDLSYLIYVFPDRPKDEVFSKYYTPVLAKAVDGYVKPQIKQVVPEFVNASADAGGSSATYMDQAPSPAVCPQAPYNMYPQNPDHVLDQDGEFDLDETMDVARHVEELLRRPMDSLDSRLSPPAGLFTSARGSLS
Put plainly: Fluorescence polarization (FP) binding assay, STAT5A. The conditions noted are these: FP competition, 5 nM fluorescein-labeled tracer, 200 nM protein, PBS pH7.4. Put shortly:
(§1)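 Fluorescence polarization is read after STAT5 or STAT6 protein (200 nM) and a fluorescein-labeled tracer (5 nM) equilibrate for 1 h at room temperature in DTT-containing PBS pH 7.4 with BGG and Tween-20. Inhibition constants are obtained by nonlinear curve fitting.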

Experiment [2] has as its target T2, STAT6 protein (Homo sapiens, UniProt P42226).
T2 sequence (P42226 1-847): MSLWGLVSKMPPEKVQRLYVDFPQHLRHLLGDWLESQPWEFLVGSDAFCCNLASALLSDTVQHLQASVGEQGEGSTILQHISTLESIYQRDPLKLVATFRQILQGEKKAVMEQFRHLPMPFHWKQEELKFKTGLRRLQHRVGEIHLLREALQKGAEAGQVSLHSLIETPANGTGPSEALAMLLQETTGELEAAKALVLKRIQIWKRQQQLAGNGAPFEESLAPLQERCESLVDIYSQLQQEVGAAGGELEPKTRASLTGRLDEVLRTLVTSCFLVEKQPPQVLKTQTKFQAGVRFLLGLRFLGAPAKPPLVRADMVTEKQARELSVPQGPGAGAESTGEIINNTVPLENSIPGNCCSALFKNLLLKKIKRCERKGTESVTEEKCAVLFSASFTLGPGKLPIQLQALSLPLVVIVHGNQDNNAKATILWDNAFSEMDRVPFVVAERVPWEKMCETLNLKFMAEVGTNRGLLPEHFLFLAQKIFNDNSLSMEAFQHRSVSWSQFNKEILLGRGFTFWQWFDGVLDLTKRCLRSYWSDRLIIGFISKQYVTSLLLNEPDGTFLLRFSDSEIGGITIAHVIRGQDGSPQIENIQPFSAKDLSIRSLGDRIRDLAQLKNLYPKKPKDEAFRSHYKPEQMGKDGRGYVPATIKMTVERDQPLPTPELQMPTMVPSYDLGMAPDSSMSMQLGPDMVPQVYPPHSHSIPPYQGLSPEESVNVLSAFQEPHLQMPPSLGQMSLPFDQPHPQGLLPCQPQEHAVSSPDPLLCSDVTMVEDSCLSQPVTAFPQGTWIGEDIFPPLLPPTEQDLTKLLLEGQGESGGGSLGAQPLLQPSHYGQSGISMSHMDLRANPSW
The experiment is described as follows: Fluorescence polarization (FP) binding assay, STAT6. The conditions noted are these: FP competition, 5 nM fluorescein-labeled tracer, 200 nM protein, PBS pH7.4; read-out: Binding STAT6. An outline of the steps: as §1

For the molecule `CC(=O)N1CC[C@H]2CC[C@@H](C(=O)N3CCOC[C@H]3c3ccccc3)N2C(=O)[C@@H](NC(=O)c2cc3cc(C(F)(F)P(=O)(O)O)ccc3s2)C1` [Compound 121, ((2-(((5S,8S,10aR)-3-acetyl-6-oxo-8-((R)-3-phenylmorpholine-4-carbonyl)decahydropyrrolo[1,2-a][1,5]diazocin-5-yl)carbamoyl)benzo[b]thiophen-5-yl)difluoromethyl)phosphonic acid], the figures for the Ki in experiment [1] and in experiment [2] were more than 10000 nM and 1000 to 10000 nM, respectively.
In the case of `CC(=O)NC(C)(C)[C@H](NC(=O)c1cc2cc(C(F)(F)P(=O)(O)O)ccc2s1)C(=O)N1CCC[C@H]1C(=O)N1CCO[C@H](c2ccccc2)C1` [Compound 122, ((2-(((S)-3-acetamido-3-methyl-1-oxo-1-((S)-2-((R)-2-phenylmorpholine-4-carbonyl)pyrrolidin-1-yl)butan-2-yl)carbamoyl)benzo[b]thiophen-5-yl)difluoromethyl)phosphonic acid], the figures for the Ki in experiment [1] and in experiment [2] were more than 10000 nM and 100 to 1000 nM, respectively.
`CC(C)(C)[C@H](NC(=O)c1cc2cc(C(F)(F)P(=O)(O)O)ccc2s1)C(=O)N1CCC[C@H]1C(=O)N1CCC(C(=O)O)C(c2ccccc2)C1` (stereo partly drawn) [Compound 123, 1-(((S)-2-(5-(difluoro(phosphono)methyl)benzo [b]thiophene-2-carboxamido)-3,3-dimethylbutanoyl)-L-prolyl)-3-phenylpiperidine-4-carboxylic acid]: the Ki is more than 10000 nM in experiment [1] and 1000 to 10000 nM in experiment [2].
On to `CC(C)(C)[C@H](NC(=O)c1cc2cc(C(F)(F)P(=O)(O)O)ccc2s1)C(=O)N1CCC[C@H]1C(=O)N1CCCOC(c2ccccc2)C1` (stereo partly drawn) [Compound 124, ((2-(((2S)-3,3-dimethyl-1-oxo-1-((2S)-2-(2-phenyl-1,4-oxazepane-4-carbonyl)pyrrolidin-1-yl)butan-2-yl)carbamoyl)benzo[b]thiophen-5-yl)difluoromethyl)phosphonic acid], for which the Ki in experiment [1] is 1000 to 10000 nM; in experiment [2], 100 to 1000 nM.
In the case of `CC(C)(C)[C@H](NC(=O)c1cc2cc(C(F)(F)P(=O)(O)O)ccc2s1)C(=O)N1CCC[C@H]1C(=O)N1CCCCC(c2ccccc2)C1` (stereo partly drawn) [Compound 125, ((2-(((2S)-3,3-dimethyl-1-oxo-1-((2S)-2-(3-phenylazepane-1-carbonyl)pyrrolidin-1-yl)butan-2-yl)carbamoyl)benzo[b]thiophen-5-yl)difluoromethyl)phosphonic acid], the Ki fell in the range of 1000 to 10000 nM in experiment [1] and 100 to 1000 nM in experiment [2].
Taken in the same sequence, the figures for `CC1COC(c2ccccc2)CN1C(=O)[C@@H]1CCCN1C(=O)[C@@H](NC(=O)c1cc2cc(C(F)(F)P(=O)(O)O)ccc2s1)C(C)(C)C` (stereo partly drawn) [Compound 126, ((2-(((2S)-3,3-dimethyl-1-((2S)-2-(5-methyl-2-phenylmorpholine-4-carbonyl)pyrrolidin-1-yl)-1-oxobutan-2-yl)carbamoyl)benzo[b]thiophen-5-yl)difluoromethyl)phosphonic acid] were 1000 to 10000 nM and 100 to 1000 nM.
Take `CC(C)(C)[C@H](NC(=O)c1cc2cc(C(F)(F)P(=O)(O)O)ccc2s1)C(=O)N1CCC[C@H]1C(=O)N1CCOC(c2cccs2)C1` (stereo partly drawn) [Compound 127, ((2-(((2S)-3,3-dimethyl-1-oxo-1-((2S)-2-(2-(thiophen-2-yl)morpholine-4-carbonyl)pyrrolidin-1-yl)butan-2-yl)carbamoyl)benzo[b]thiophen-5-yl)difluoromethyl)phosphonic acid]: the values for the Ki in experiment [1] and in experiment [2] were 1000 to 10000 nM and 100 to 1000 nM, respectively.
Taken in the same sequence, the figures for `CC(C)(C)[C@H](NC(=O)c1cc2cc(C(F)(F)P(=O)(O)O)ccc2s1)C(=O)N1CCC[C@H]1C(=O)N1CCOC(c2nccs2)C1` (stereo partly drawn) [Compound 128, ((2-(((2S)-3,3-dimethyl-1-oxo-1-((2S)-2-(2-(thiazol-2-yl)morpholine-4-carbonyl)pyrrolidin-1-yl)butan-2-yl)carbamoyl)benzo[b]thiophen-5-yl)difluoromethyl)phosphonic acid] were more than 10000 nM and 1000 to 10000 nM.
`CC(C)(C)[C@H](NC(=O)c1cc2cc(C(F)(F)P(=O)(O)O)ccc2s1)C(=O)N1CCC[C@H]1C(=O)N1CCOC(c2cccc3ccccc23)C1` (stereo partly drawn) [Compound 129, ((2-(((2S)-3,3-dimethyl-1-((2S)-2-(2-(naphthalen-1-yl)morpholine-4-carbonyl)pyrrolidin-1-yl)-1-oxobutan-2-yl)carbamoyl)benzo[b]thiophen-5-yl)difluoromethyl)phosphonic acid]: the Ki in experiment [1] lay in the range of 1000 to 10000 nM; in experiment [2], 100 to 1000 nM.
With `CC(C)(C)[C@H](NC(=O)c1cc2cc(C(F)(F)P(=O)(O)O)ccc2s1)C(=O)N1CCC[C@H]1C(=O)N1CCOC(c2cccnc2)C1` (stereo partly drawn) [Compound 130, ((2-(((2S)-3,3-dimethyl-1-oxo-1-((2S)-2-(2-(pyridin-3-yl)morpholine-4-carbonyl)pyrrolidin-1-yl)butan-2-yl)carbamoyl)benzo[b]thiophen-5-yl)difluoromethyl)phosphonic acid], the Ki is more than 10000 nM in experiment [1] and 100 to 1000 nM in experiment [2].
With `CC(C)(C)[C@H](NC(=O)c1cc2cc(C(F)(F)P(=O)(O)O)ccc2s1)C(=O)N1CCC[C@H]1C(=O)N1CCOC(c2ccncc2)C1` (stereo partly drawn) [Compound 131, ((2-(((2S)-3,3-dimethyl-1-oxo-1-((2S)-2-(2-(pyridin-4-yl)morpholine-4-carbonyl)pyrrolidin-1-yl)butan-2-yl)carbamoyl)benzo[b]thiophen-5-yl)difluoromethyl)phosphonic acid], the Ki is more than 10000 nM in experiment [1] and 1000 to 10000 nM in experiment [2].
On to `CC(C)(C)[C@H](NC(=O)c1cc2cc(C(F)(F)P(=O)(O)O)ccc2s1)C(=O)N1CCC[C@H]1C(=O)N1CCSC(c2ccccc2)C1` (stereo partly drawn) [Compound 132, ((2-(((2S)-3,3-dimethyl-1-oxo-1-((2S)-2-(2-phenylthiomorpholine-4-carbonyl)pyrrolidin-1-yl)butan-2-yl)carbamoyl)benzo[b]thiophen-5-yl)difluoromethyl)phosphonic acid], for which the Ki in experiment [1] and in experiment [2] was 100 to 1000 nM throughout.
With `CC(C)(C)[C@H](NC(=O)c1cc2cc(C(F)(F)P(=O)(O)O)ccc2s1)C(=O)N1CCC[C@H]1C(=O)N1CCOC(Cc2ccccc2)C1` (stereo partly drawn) [Compound 133, ((2-(((2S)-1-((2S)-2-(2-benzylmorpholine-4-carbonyl)pyrrolidin-1-yl)-3,3-dimethyl-1-oxobutan-2-yl)carbamoyl)benzo[b]thiophen-5-yl)difluoromethyl)phosphonic acid], the values for the Ki in experiment [1] and in experiment [2] were more than 10000 nM and 1000 to 10000 nM, respectively.
Take `CC(C)(C)[C@H](NC(=O)c1cc2cc(C(F)(F)P(=O)(O)O)ccc2s1)C(=O)N1CCC[C@H]1C(=O)N1CCOC(C2CCCCC2)C1` (stereo partly drawn) [Compound 134, ((2-(((2S)-1-((2S)-2-(2-cyclohexylmorpholine-4-carbonyl)pyrrolidin-1-yl)-3,3-dimethyl-1-oxobutan-2-yl)carbamoyl)benzo[b]thiophen-5-yl)difluoromethyl)phosphonic acid]: the Ki in experiment [1] was more than 10000 nM; in experiment [2], 1000 to 10000 nM.
Take `CC(C)(C)[C@H](NC(=O)c1cc2cc(C(F)(F)P(=O)(O)O)ccc2s1)C(=O)N1CCC[C@H]1C(=O)N1CCS(=O)(=O)[C@H](c2ccccc2)C1` [Compound 135, ((2-(((S)-1-((S)-2-((R)-1,1-dioxido-2-phenylthiomorpholine-4-carbonyl)pyrrolidin-1-yl)-3,3-dimethyl-1-oxobutan-2-yl)carbamoyl)benzo[b]thiophen-5-yl)difluoromethyl)phosphonic acid]: the Ki in experiment [1] fell in the range of 1000 to 10000 nM; in experiment [2] it was 100 to 1000 nM.
